Data taken from patent US7943173B2, “Pharmaceutical combinations of oxycodone and naloxone” (Purdue Pharma L.P., priority 2001, dated 2011).
Structures can show the parent of a compound that is named as a salt. Marks after values point to notes of the source that are not given here.

What was measured:
[1] = Example 8: adverse events; type: in vivo, human
Protocol: There were no deaths or serious adverse events. No subjects discontinued because of adverse events. The majority of drug-related adverse events occurred when subjects were dosed with Talwin® Nx. These included nausea, vomiting, dizziness, and headache. One subject withdrew consent due to a schedule conflict.
Eleven of 18 subjects experienced a total of 25 adverse events, none serious. Seven of these subjects experienced adverse events described as possibly, probably, or definitely related to the study medication. Overall, adverse events were more frequently reported in subjects receiving Talwin® Nx, consistent with expected adverse events related to pentazocine. All subjects recovered from all adverse events. No action (e.g., discontinuation) was taken with regard to the study drug.

clinical [2] = details: both, human, plasma; for AUC(0-t): AUCt; for AUC(0-t) / Cmax / Tmax: plasma naloxone
Protocol: In Example 8, a single-center, open-label, randomized, 4-period, 4-sequence, 4-treatment crossover study in 18 normal, healthy, young adult, male and female subjects under fasted conditions was conducted. […] Subjects were randomly assigned to four sequences with periods consisting of the following: • Period 1 was Days 1-8 (from the time of the first dose until the time of the second dose), • Period 2 was Days 8-15 (from the time of the second dose until the third dose), • Period 3 was Days 15-22 (from the third dose until the fourth dose), and • Period 4 was Days 22 (from the time of the last dose until the end of the study).
Dosing took place on Days 1, 8, 15, and 22. For the duration of the study, subjects were instructed not to engage in heavy exercise.
Talwin® Nx was administered with 8 ounces of water, which the subjects drank completely. Afterwards, mouth inspections were done to ensure that each subject swallowed the tablet.
Following the single oral dose of naloxone, subjects drank two additional 75 ml rinses of water, for a total volume of 225 ml. For divided doses (also 0.02 mg/ml), the first dose was followed by two 94 ml rinses of water, and subsequent doses were followed by two 75 ml rinses of water.
Intravenous naloxone was administered by IV push. Following IV naloxone, subjects were observed by staff members continuously for at least 20 minutes.
Each subject received each treatment one time. Each treatment followed an overnight fast (excluding water) of at least 10 hours, and after dosing, the subjects fasted for an additional 4 hours. Except for the days of dosings, there were no food restrictions. While subjects were confined to the clinical unit all meals were served at standardized times, and the content was standardized throughout the study and between subjects. Meal records were maintained, including content. No caffeine or xanthine-containing beverages were served while the subjects were in the clinical facility.

clinical [3] = details: both, human, plasma, oral
Protocol: Up to 96 subjects were to be enrolled in order to complete a minimum of 48 subjects who were evaluable for pharmacokinetics. […] Subjects successfully completing the Narcan® challenge were randomly assigned to 1 of 2 crossover treatment sequences (reference to test or test to reference) with a 5-day washout period separating dosing in the 2 periods. Subjects were confined to the study facility continuously from Day-1 until Day 10. […] All doses were administered with 8 ounces of water after an overnight fast (excluding water). […] Plasma concentrations of oxycodone and naloxone (as applicable) were determined, and pharmacokinetic metrics were calculated and analyzed. […] For the purpose of statistical analyses, Period 1 was defined as the time from administration of the first dose (Day 2) to just prior to administration of the second dose (Day 7). Period 2 was defined as the time from administration of the second dose (Day 7) to the time of the 72-hour postdose blood collection on Day 10.

[4] = conclusions of the study, treatment not named
[5] = iv, 0.5 mg, 0.5 mg IV naloxone HCl, arithmetic mean (SD)
[6] = po, 1.5 mg, 1.5 mg naloxone HCl oral divided doses, arithmetic mean (SD)
[7] = po, 1.5 mg, 1.5 mg naloxone HCl single oral dose, 18 subjects, arithmetic mean (SD)

SMILES: C=CCN1CC[C@]23c4c5ccc(O)c4O[C@H]2C(=O)CC[C@@]3(O)[C@H]1C5 [Naloxone HCl, naloxone hydrochloride]
- adverse events considered possibly, probably, or definitely related to study drug ([1]; 0.5 mg intravenous naloxone): nausea possibly related
- adverse events considered possibly, probably, or definitely related to study drug ([1]; 1.5 mg oral naloxone in divided doses): headache possibly related
- tolerability ([1]; given alone, total doses of 0.5 mg IV and up to 1.5 mg orally): well tolerated
- adverse events during the naloxone challenge test ([1]; intravenous challenge at screening, 18 subjects randomized): No adverse events were observed
- AUC0-∞, dose normalized (Dose Normalized to 0.5 mg IV Naloxone HCl dose, 0.5 mg IV arm, 15 subjects): 3051 (668)^a pg · h/ml
- Mean naloxone peak exposure [4]: 8 pg/mL
- naloxone peak exposure, range [4]: 0 to 16.6 pg/mL
- AUC(0-inf) (clinical [2]; iv, 0.5 mg): 3.05 ng·h/mL
- clearance (clinical [2]; iv, 0.5 mg): 2850 mL/min
- AUC(0-t) (clinical [2]; iv, 0.5 mg, 0.5 mg IV naloxone HCl, fasted healthy subjects, arithmetic mean (SD)): 3.2 ng·h/mL
- Cmax (clinical [2]; [5]): 6.25 ng/mL
- half-life (clinical [2]; iv, 0.5 mg, t1/2, plasma naloxone, 0.5 mg IV naloxone HCl, 15 subjects, arithmetic mean (SD)): 0.92 h
- Tmax (clinical [2]; [5]): 0.14 h
- AUC(0-t) (clinical [2]; po, 1.5 mg, 1.5 mg naloxone HCl oral divided doses (0, 3, 6, 9 h), arithmetic mean (SD)): 0.0649 ng·h/mL
- AUC(0-t) (clinical [2]; po, 1.5 mg, 1.5 mg naloxone HCl single oral dose (solution), 18 subjects, arithmetic mean (SD)): 0.0474 ng·h/mL
- Cmax (clinical [2]; [6]): 0.0134 ng/mL
- Cmax (clinical [2]; [7]): 0.023 ng/mL
- bioavailability (clinical [2]; po, 1.5 mg, F (%) absolute bioavailability, 1.5 mg naloxone HCl oral divided doses, based on AUCt, mean (SD)): 0.66%
- bioavailability (clinical [2]; po, 1.5 mg, F (%) absolute bioavailability, 1.5 mg naloxone HCl single oral dose, based on AUCt, mean (SD)): 0.47%
- Tmax (clinical [2]; [6]): 3.18 h
- Tmax (clinical [2]; [7]): 0.78 h
- bioavailability (clinical [2]; po, absolute bioavailability of naloxone, all three oral treatments studied): < 1%
- Cmax (clinical [3]): 0.00213 ± 0.00447 ng/mL
- Tmax (clinical [3]): 3.35 ± 3.69 h
- half-life (clinical [3]): 4.3 ± 3.03 h
